Test [1] addresses T1, Amine oxidase [flavin-containing] A (Rattus norvegicus, UniProt P21396).
T1 sequence (P21396 whole entry): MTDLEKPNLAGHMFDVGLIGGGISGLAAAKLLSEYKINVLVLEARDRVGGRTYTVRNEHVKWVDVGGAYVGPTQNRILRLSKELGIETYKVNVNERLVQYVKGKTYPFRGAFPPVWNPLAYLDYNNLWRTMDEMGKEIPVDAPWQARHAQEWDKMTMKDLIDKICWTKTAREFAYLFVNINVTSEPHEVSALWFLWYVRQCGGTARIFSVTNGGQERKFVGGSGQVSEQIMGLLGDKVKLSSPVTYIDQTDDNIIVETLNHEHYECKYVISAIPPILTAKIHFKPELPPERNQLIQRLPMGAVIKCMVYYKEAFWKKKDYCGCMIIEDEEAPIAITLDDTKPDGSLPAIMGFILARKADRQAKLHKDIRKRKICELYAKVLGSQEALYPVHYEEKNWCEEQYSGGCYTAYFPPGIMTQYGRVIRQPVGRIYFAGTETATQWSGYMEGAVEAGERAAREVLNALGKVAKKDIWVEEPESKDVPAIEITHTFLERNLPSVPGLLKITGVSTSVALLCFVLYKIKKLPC
Kind of test: MAO Inhibition Assay. The conditions noted are these: pH 7.4; 37 °C. Here is the method: (§1) A continuous spectrophotometric assay that monitors the rate of oxidation of the nonselective MAO substrate kynuramine into 4-hydroxyquinoline was used. clorgyline or selegiline was preincubated with the suspension for 5 min to measure MAO-B or MAO-A activity, respectively. […] IC50 values were determined and calculated from a hyperbolic equation. Each assay was performed in triplicate on four to six separate homogenates.

Test [2] addresses T2, Amine oxidase [flavin-containing] B (Rattus norvegicus, UniProt P19643).
T2 sequence (P19643 whole entry): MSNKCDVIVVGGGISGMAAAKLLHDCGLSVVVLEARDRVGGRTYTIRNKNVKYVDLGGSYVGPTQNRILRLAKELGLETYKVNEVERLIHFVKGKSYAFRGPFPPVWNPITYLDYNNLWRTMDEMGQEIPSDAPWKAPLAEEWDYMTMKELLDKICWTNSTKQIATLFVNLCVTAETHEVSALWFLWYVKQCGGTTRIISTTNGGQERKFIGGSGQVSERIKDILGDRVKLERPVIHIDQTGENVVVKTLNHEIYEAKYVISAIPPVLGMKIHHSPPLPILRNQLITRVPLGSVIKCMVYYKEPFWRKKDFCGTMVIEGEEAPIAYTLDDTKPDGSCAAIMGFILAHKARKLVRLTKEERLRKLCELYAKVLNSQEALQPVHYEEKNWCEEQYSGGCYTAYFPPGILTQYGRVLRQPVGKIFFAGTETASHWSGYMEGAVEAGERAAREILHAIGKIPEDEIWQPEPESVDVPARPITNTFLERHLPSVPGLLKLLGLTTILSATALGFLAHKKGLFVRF
Kind of test: MAO Inhibition Assay. Here is the method:
as §1

Usually IC50 stands for the concentration that inhibits the measured activity by half. Read a low IC50 as greater potency in that assay.

`c1ccc(-c2cc3c(nn2)-c2ccccc2C3)cc1` showed an IC50 in test [1] greater than 100 µM.

For `c1ccc(-c2nc3cc4ccccc4c-3c[nH]2)cc1` [2-phenyl-9H-indeno[2,1-d]pyrimidine], the IC50 in test [1] turned out to be 16.7 µM; in test [2] it was 13 µM.

Values taken from BindingDB's records for doi:10.1021/jm070728r (University of Bari, 2007).
